Reference: patent US20260097022A1, “COMPOUNDS AND USES THEREOF” (Integrated Biosciences, Inc., priority 2023, published 2026)

What was measured:
[1] = Phase II, lung carcinoma; cited from earlier work
[2] = tested on: etoposide-treated IMR-90 cells; test: Etoposide-induced senescence model, resazurin cell viability (screen and dose-response); assay type: cell-based, human; conditions: 3 days
How it was run: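 IMR-90 fibroblasts made senescent with 50 μM etoposide for 2 days, then 4 days recovery before plating. Compounds at 10 μM or 1 μM final (screen) or three-fold dilutions (1% DMSO) for 3 days, then 0.15 mM resazurin 1 day, fluorescence 550/590 nm. Viability expressed as fraction of untreated controls; biological duplicates.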

[3] = tested on: primary human T-cells; test: Cytotoxicity to T-cells in vitro; assay type: cell-based; conditions: for T-cell death: at about 0.1 μM; for IC50: primary human T-cells, read-out: T-cell cytotoxicity IC50
[4] = tested on: human red blood cells; test: Hemolysis assay; assay type: cell-based; conditions: up to a final concentration of 100 μM; 1 h at 37° C.
Description: Hemolysis assay. Whole human blood containing EDTA (Innovative Resarch IWB1K2E) was centrifuged at 120×g at 4° C., for 5 min and resuspended in Dulbecco's PBS (DPBS: VWR 02-0119-0500). These washing steps were repeated until the supernatant was clear. Red blood cells were then resuspended in DPBS to 5×10^8 cells/mL, and 100 μL of cells was plated into each well of a 96-well clear round-bottom plate. Compounds were added to the indicated concentrations, and DMSO was used as a vehicle. Samples were incubated for 1 h at 37° C., without shaking, after which plates were centrifuged at 1500×g at room temperature for 5 min to pellet cells. 60 μL of the supernatant from each sample was then transferred to a 96-well clear flat-bottom plate, and the absorbance was read at 405 nm using a SpectraMax M3 plate reader to quantify the amount of soluble hemoglobin. Fractional hemolysis was determined by linearly interpolating absorbance values with respect to a positive control (saturation with 10% Triton X-100) and a negative control (1% DMSO vehicle). Results are depicted in FIG. 14.

[5] = tested on: HEK293 cells; test: Cytotoxicity against HEK293 cells (resazurin); assay type: cell-based, human; conditions: 3 days treatment; curve-fitting, two biological replicates
Description: (§1) Measuring cytotoxicity against HepG2 and HEK293 cells. Cytotoxicity in human embryonic kidney (HEK293) and liver carcinoma (HepG2) cells was assayed as above using a resazurin assay. Cells were obtained from ATCC (ATCC CRL-1573 and HB-8065), passaged <10 times, and grown in Dulbecco's modification of Eagle's Medium (DMEM: Corning 10^−013-CV) supplemented with 10% FBS and 1% penicillin-streptomycin. 99 μL of cells were plated into each well of a 96-well clear flat-bottom, black polystyrene tissue-culture-treated plate at a density of ˜10+ cells/well, and plates were incubated overnight for adhesion. The day after plating. 1 μL of each compound, prepared as two-fold serial dilutions of 5 mM stock solutions in DMSO, was added to each well. Cells were incubated for 3 days, after which resazurin was added to each well to a final concentration of 0.15 mM. After an additional 1 day of incubation, the fluorescence excitation/emission at 550/590 nm was read using a SpectraMax M3 plate reader. Experiments were performed in biological duplicate. IC50 values were determined by normalizing with respect to the fluorescence intensity values of untreated control cells on day 3, as described in Calculation of cellular viability values in dose-response curves above.

[6] = cited from earlier work
[7] = tested on: HepG2 cells; test: Cytotoxicity against HepG2 cells (resazurin); assay type: cell-based, human; conditions: 3 days treatment; curve-fitting, two biological replicates
Description: as §1

[8] = tested on: Salmonella typhimurium TA100; test: Genotoxicity assay (Ames 384-ISO test); assay type: cell-based; conditions: 100 μM
Description: Genotoxicity assay. An Ames 384-ISO test (6041-1S) from Environmental Bio-Detection Products, Inc, was used following the manufacturer's instructions. Briefly. Salmonella typhimurium TA100 was grown overnight (16-18 h) at 37° C., with shaking at 300 rpm and treated with the provided exposure media and compound samples at the final concentrations indicated. Treatment with the provided 4-nitroquinoline 1-oxide (4NQO), a mutagen, was used as a positive control. Cells were then added to the provided reversion solution, and each sample was split into 48 wells of 384-well plates. Plates were incubated at 37° C., for 2 days, after which the number of revertant (yellow-colored) wells corresponding to each sample was counted. […] An overnight bacterial culture was diluted 1:10.000 in LB medium (Becton Dickinson 244620) and plated using 99 μL working volumes into the wells of a clear flat-bottom 96-well plate. One μL of two-fold dilutions of each test compound in DMSO, starting from a final concentration of 500 μM, was added across wells, and plates were sealed and incubated overnight at 37° C., to determine bacterial growth.

[9] = tested on: wounded ex vivo human skin; test: Ex vivo wounded skin model
Description: For the younger skin sample, RNA expression levels of collagen (Col1a1) and matrix metallopeptidase 9 (MMP9) were additionally measured. Higher levels of Col1a1 may be associated with senescence and scarring.
IBX-100 was tested again for safety in a combination dosing regimen. IBX-100 was formulated as a 10% solution in 100% DMSO and applied directly by pipetting 5 μL on wounded younger skin (e.g. Person, Fitzpatrick type 2-3). Additionally, IBX-100 was administered to the culture medium at a final concentration of about 100 μg/mL, by adding 1 μL of a 100 mg/mL solution in DMSO to 1 mL of culture media, as a model of systemic administration.
To test efficacy. IBX-100 was applied both topically and systemically as described above every 24 h for 5 days. On day 6, the skin biopsies were excised, and p16. Col1a1, and MMP9 RNA expression was measured inside each wound. Compared to vehicle (e.g., DMSO) values, p16. Col1a1, and MMP9 expression was decreased, on average, by ˜30%. ˜ 60%, and ˜60%, respectively, with administration of IBX-100 (FIG. 19).

[10] = biological target: Mcl-1 (Homo sapiens, UniProt Q07820); test: Mcl-1 TR-FRET; assay type: binding
Mcl-1, sequence (Q07820 whole entry, species assumed): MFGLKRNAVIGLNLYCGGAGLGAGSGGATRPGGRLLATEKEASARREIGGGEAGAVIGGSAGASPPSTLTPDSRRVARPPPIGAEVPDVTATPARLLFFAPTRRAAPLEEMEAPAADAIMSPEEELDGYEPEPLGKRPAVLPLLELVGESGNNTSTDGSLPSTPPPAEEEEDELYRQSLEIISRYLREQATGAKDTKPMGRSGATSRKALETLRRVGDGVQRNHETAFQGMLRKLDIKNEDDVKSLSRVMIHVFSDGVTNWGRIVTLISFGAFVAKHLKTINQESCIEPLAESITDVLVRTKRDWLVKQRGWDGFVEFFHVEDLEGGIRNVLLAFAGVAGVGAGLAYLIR

[11] = Cytotoxicity to T-cells in vitro; assay type: cell-based, human; conditions: human, primary human T-cells; read-out: T-cell cytotoxicity IC50
[12] = tested on: ex vivo human skin; test: Ex vivo aged human skin model
Description: IBX-100 was first tested in ex vivo skin for safety.
IBX-100 was further tested in ex vivo skin for efficacy, p16 mRNA expression was measured after 5 days of topical application of IBX-100 on an older subject (e.g. Person, Fitzpatrick type 2) skin, and compared to vehicle values.

[13] = 10 μM, active: control viability >0.5, Snc/control ratio <0.7
[14] = topical and systemic every 24 h for 5 days, day 6

## CC1(C)CCC(c2ccc(Cl)cc2)=C(CN2CCN(c3ccc(C(=O)NS(=O)(=O)c4ccc(N[C@H](CCN5CCOCC5)CSc5ccccc5)c(S(=O)(=O)C(F)(F)F)c4)cc3)CC2)C1 [ABT-263]
[1]
  side effects in patients: thrombocytopenia and neutropenia were common side effects
[2]; 1 μM
  senolytic activity in screen: inactive
[2]; [13]
  senolytic activity in screen: active
[3]
  T-cell death: substantial cell death
  IC50: ~1 µM

## CN(C)CC[C@H](CSc1ccccc1)Nc1ccc(S(=O)(=O)NC(=O)c2ccc(N3CCN(Cc4ccccc4-c4ccc(Cl)cc4)CC3)cc2)cc1[N+](=O)[O-] [ABT-737, reference compound]
[4]
  hemolysis: did not induce significant hemolysis
[5]
  IC50: 28.8 µM
[6]
  bioavailability: limited bioavailability
[7]
  IC50: 132 µM
[2]; 1 μM
  senolytic activity in screen: inactive
[2]; [13]
  senolytic activity in screen: active
[3]
  T-cell death: substantial cell death
  IC50: ~1 µM
[8]
  reversion of bacterial cultures (mutagenic potential): did not induce significant reversion

## CCOc1ccc(NC(=O)CSc2nc3ccc(NC(=O)c4ccccc4C)cc3s2)cc1 [compound 1]
[9]; 10% solution in DMSO topically and about 100 μg/mL in culture medium
  safety in wounded ex vivo skin: no adverse effects
[9]; [14]
  average decrease in Col1a1 RNA expression inside wound compared to vehicle: ~60%
  average decrease in MMP9 RNA expression inside wound compared to vehicle: ~60%
  average decrease in p16 RNA expression inside wound compared to vehicle: ~30%
[10]
  IC50: > 100 µM
[11]
  IC50: > 100 µM
[12]; 5% topical ointment in 10% DMSO: 45% PEG300:45% water, older and younger subject skin
  safety in ex vivo skin: No adverse effects
[12]; 5 days of topical application, older subject skin, three samples
  average decrease in p16 mRNA expression compared to vehicle: approximately 40%
